{"source": "patent US20200038415A1", "about": "“AMINOSTEROL COMPOSITIONS AND METHODS OF USING THE SAME FOR TREATING ERECTILE DYSFUNCTION” (Enterin, Inc., priority 2018, published 2020)", "key": {"[1]": {"tested_on": "PD patients with constipation", "test": "Safety and adverse event profile, Stage 2", "assay_type": "in vivo, human", "experimental": "(§1) In Stage 2, 34 patients were evaluated."}, "Solubility in water": {"test": "Solubility in water", "assay_type": "physicochemical", "settings": "phosphate salt"}, "[2]": {"test": "Pharmacokinetics of orally administered squalamine (ENT-01) in Stage 1", "assay_type": "in vivo, human", "settings": "based on PK of intravenously administered squalamine in prior clinical studies", "experimental": "PK data were collected on the 10 patients enrolled in Stage 1 and 10 patients enrolled in Stage 2 to determine the extent of systemic absorption. In Stage 1, PK data were obtained at each visit, pre-medication, at 1, 2, 4, 8 and 24 hours (Table 10). In Stage 2, PK was measured on days 1 and 6 of the randomization period pre-medication, at 1, 2, 4 and 8 hours (Table 11).\nThe mean Cmax, Tmax and T1/2 and AUC of the squalamine ion following squalamine (ENT-01) oral dosing for Stage 1 patients. The PK analyses are only approximate, as the lower limit of the validated concentration range was 10 ng/ml; most of the measured concentrations fell below that value. The mean Cmax, Tmax and T1/2 and AUC of the squalamine ion following squalamine (ENT-01) oral dosing for Stage 2 patients. The PK analyses are only approximate, as the lower limit of the validated concentration range was 0.5 ng/ml."}, "[3]": {"tested_on": "PD patients with constipation", "test": "Phase 2 trial Stage 1: prokinetic response to single escalating oral doses", "assay_type": "in vivo, human", "settings": "Example 1, FIG. 1A", "experimental": "(§2) Following successful screening, all subjects underwent a 14-day run-in period where the degree of constipation was assessed through a validated daily log (Zinsmeister et al. 2013) establishing baseline CSBMs/week. Subjects with an average of <3 CSBMs/week proceeded to dosing.\n(§3) Tolerability limits included diarrhea or vomiting."}, "[4]": {"tested_on": "PD patients with constipation", "test": "Safety and adverse event profile, Stage 1", "assay_type": "in vivo, human", "text": "as §3"}, "[5]": {"tested_on": "PD patients with constipation", "test": "Phase 2 trial Stage 2: bowel function under daily oral dosing (fixed dose, randomized period, wash-out)", "assay_type": "in vivo, human", "settings": "Stage 2 fixed dose", "experimental": "as §2, §1\nThe primary efficacy outcome variable was whether or not a subject was a “success” or “failure”. This is an endpoint based on subject diary entries for the “fixed dose” period prior to the endpoint assessment defined as average complete stool frequency increase by 1 or more over baseline, or 3 or more complete spontaneous stools/week. The subject was deemed a “success” if s/he met one or more of the criteria listed above, otherwise the subject was deemed a “failure”. The primary analysis was based on all subjects with a baseline assessment and an assessment at the end of the “fixed-dose” period and was a comparison of the proportion of successes with 0.10 (the null hypothesis corresponding to no treatment effect).\nThe proportion of subjects for whom the drug was a success was estimated with a binomial point estimate and corresponding 95% confidence interval. A secondary analysis compared the proportions of subjects who are deemed a success at the end of the randomized fixed-dose period between those randomized to the squalamine (ENT-01) arm and those randomized to the placebo arm. A Fisher's exact test was used to compare the proportions of subjects who were deemed a success at the end of randomization period between the two randomized arms"}, "[6]": {"tested_on": "PD patients with constipation", "test": "Safety and adverse event profile, Stage 1 and 2 combined (44 dosed)", "assay_type": "in vivo, human", "experimental": "Fifty patients were enrolled and 44 were dosed. In Stage 1, 10 patients were dosed, 1 (10%) withdrew prior to completion and 9 (90%) completed dosing. In stage 2, 6 (15%) patients had ≥3 CSBM/week at the end of the run-in period and were excluded, 34 patients were dosed and bowel response was assessable in 31 (91%). Two patients (5.8%) were terminated prior to completion because of recurrent dizziness, and 3 others withdrew during dosing (8.8%): 2 because of diarrhea and 1 because of holiday. Fifteen patients were randomized."}}}
{"smiles": "CC(C)[C@@H](CC[C@@H](C)[C@H]1CC[C@H]2[C@@H]3[C@H](O)C[C@H]4C[C@@H](NCCCNCCCCN)CC[C@]4(C)[C@H]3CC[C@]12C)OS(=O)(=O)O", "note": "(single isomer, unassigned) [squalamine (ENT-01), squalamine]", "values": [{"measurement": "patients who withdrew during dosing because of diarrhea", "setting": "[1]; Stage 2", "value": 2, "unit": "patients"}, {"measurement": "diarrhea, patients", "setting": "[1]; Stage 2, 15/34 patients", "value": 44, "unit": "%"}, {"measurement": "Abdominal pain, Mild", "setting": "[1]; Stage 2, 34 dosed", "value": 4, "unit": "n"}, {"measurement": "Abdominal pain, Moderate", "setting": "[1]; Stage 2, 34 dosed", "value": 2, "unit": "n"}, {"measurement": "Blood in urine, Mild", "setting": "[1]; Stage 2, 34 dosed", "value": 0, "unit": "n"}, {"measurement": "Blood in urine, Moderate", "setting": "[1]; Stage 2, 34 dosed", "value": 0, "unit": "n"}, {"measurement": "Diarrhea, Mild", "setting": "[1]; Stage 2, 34 dosed", "value": 12, "unit": "n"}, {"measurement": "Diarrhea, Moderate", "setting": "[1]; Stage 2, 34 dosed", "value": 2, "unit": "n"}, {"measurement": "Diarrhea, Severe", "setting": "[1]; Stage 2, 34 dosed", "value": 1, "unit": "n"}, {"measurement": "Difficulty falling asleep, Mild", "setting": "[1]; Stage 2, 34 dosed", "value": 1, "unit": "n"}, {"measurement": "Difficulty falling asleep, Moderate", "setting": "[1]; Stage 2, 34 dosed", "value": 0, "unit": "n"}, {"measurement": "Dizziness, Mild", "setting": "[1]; Stage 2, 34 dosed", "value": 7, "unit": "n"}, {"measurement": "Dizziness, Moderate", "setting": "[1]; Stage 2, 34 dosed", "value": 1, "unit": "n"}, {"measurement": "Eye infection, Mild", "setting": "[1]; Stage 2, 34 dosed", "value": 1, "unit": "n"}, {"measurement": "Eye infection, Moderate", "setting": "[1]; Stage 2, 34 dosed", "value": 0, "unit": "n"}, {"measurement": "Flatulence, Mild", "setting": "[1]; Stage 2, 34 dosed", "value": 1, "unit": "n"}, {"measurement": "Flatulence, Moderate", "setting": "[1]; Stage 2, 34 dosed", "value": 0, "unit": "n"}, {"measurement": "Headache, Mild", "setting": "[1]; Stage 2, 34 dosed", "value": 3, "unit": "n"}, {"measurement": "Headache, Moderate", "setting": "[1]; Stage 2, 34 dosed", "value": 0, "unit": "n"}, {"measurement": "Increased urinary frequency, Mild", "setting": "[1]; Stage 2, 34 dosed", "value": 2, "unit": "n"}, {"measurement": "Increased urinary frequency, Moderate", "setting": "[1]; Stage 2, 34 dosed", "value": 0, "unit": "n"}, {"measurement": "Loss of appetite, Mild", "setting": "[1]; Stage 2, 34 dosed", "value": 0, "unit": "n"}, {"measurement": "Loss of appetite, Moderate", "setting": "[1]; Stage 2, 34 dosed", "value": 0, "unit": "n"}, {"measurement": "Nausea, Mild", "setting": "[1]; Stage 2, 34 dosed", "value": 18, "unit": "n"}, {"measurement": "Nausea, Moderate", "setting": "[1]; Stage 2, 34 dosed", "value": 1, "unit": "n"}, {"measurement": "Skin lesions-rash, Mild", "setting": "[1]; Stage 2, 34 dosed", "value": 3, "unit": "n"}, {"measurement": "Skin lesions-rash, Moderate", "setting": "[1]; Stage 2, 34 dosed", "value": 0, "unit": "n"}, {"measurement": "Urinary retention, Mild", "setting": "[1]; Stage 2, 34 dosed", "value": 1, "unit": "n"}, {"measurement": "Urinary retention, Moderate", "setting": "[1]; Stage 2, 34 dosed", "value": 0, "unit": "n"}, {"measurement": "Urinary tract infection, Mild", "setting": "[1]; Stage 2, 34 dosed", "value": 1, "unit": "n"}, {"measurement": "Urinary tract infection, Moderate", "setting": "[1]; Stage 2, 34 dosed", "value": 2, "unit": "n"}, {"measurement": "Vomiting, Mild", "setting": "[1]; Stage 2, 34 dosed", "value": 2, "unit": "n"}, {"measurement": "Vomiting, Moderate", "setting": "[1]; Stage 2, 34 dosed", "value": 0, "unit": "n"}, {"measurement": "Worsening acid reflux, Mild", "setting": "[1]; Stage 2, 34 dosed", "value": 4, "unit": "n"}, {"measurement": "Worsening acid reflux, Moderate", "setting": "[1]; Stage 2, 34 dosed", "value": 0, "unit": "n"}, {"measurement": "Worsening hemorrhoid, Mild", "setting": "[1]; Stage 2, 34 dosed", "value": 1, "unit": "n"}, {"measurement": "Worsening hemorrhoid, Moderate", "setting": "[1]; Stage 2, 34 dosed", "value": 0, "unit": "n"}, {"measurement": "AEs confined to the GI tract", "setting": "[1]; Stage 2, share of AEs", "value": 63, "unit": "%"}, {"measurement": "Lower GI bleed, Severe", "setting": "[1]; Stage 2, Unrelated to ENT-01", "value": 1, "unit": "n"}, {"measurement": "lower GI bleed (Serious adverse event, SAE)", "setting": "[1]; during the withdrawal period, considered unrelated to study medication", "value": "One patient"}, {"measurement": "solubility in water", "setting": "Solubility in water; neutral pH", "value": "weakly soluble"}, {"measurement": "solubility in water", "setting": "Solubility in water; pH<3.5 (the pH of gastric fluid)", "value": "readily dissolves"}, {"measurement": "oral bio-availability (estimated)", "setting": "[2]", "value": "less than 0.3%"}, {"measurement": "oral bio-availability (estimated)", "setting": "[2]; listed as aminosterol", "value": "< 0.3", "unit": "%"}, {"measurement": "subjects responded with improved bowel function", "setting": "[3]", "value": 80, "unit": "%"}, {"measurement": "diarrhea, patients", "setting": "[4]; Stage 1, 4/10 patients", "value": 40, "unit": "%"}, {"measurement": "nausea, patients", "setting": "[4]; Stage 1, 4/10 patients", "value": 40, "unit": "%"}, {"measurement": "AEs confined to the GI tract", "setting": "[4]; Stage 1, share of AEs", "value": 88, "unit": "%"}, {"measurement": "CSBM, weekly average (mean, SD)", "setting": "[5]; n=34, baseline 1.2 (0.90)", "value": "3.8 /week"}, {"measurement": "SBM, weekly average (mean, SD)", "setting": "[5]; n=34, baseline 2.6 (1.45)", "value": "4.5 /week"}, {"measurement": "Suppository use / rescue medication, weekly average (mean, SD)", "setting": "[5]; baseline 1.8 (1.92)", "value": "0.3 /week"}, {"measurement": "Consistency, Bristol stool scale (mean, SD)", "setting": "[5]; scale 1-7, baseline 2.7 (1.20), listed as aminosterol", "value": 4.1}, {"measurement": "Ease of passage, Ease of evacuation scale (mean, SD)", "setting": "[5]; scale 1-7, baseline 3.2 (0.73), listed as aminosterol", "value": 3.7}, {"measurement": "worsening of hemorrhoids, patients", "setting": "[6]; 1/44 patients", "value": 2.2, "unit": "%"}, {"measurement": "worsening of acid reflux, patients", "setting": "[6]; 2/44 patients", "value": 4.5, "unit": "%"}, {"measurement": "flatulence, patients", "setting": "[6]; 3/44 patients", "value": 6.8, "unit": "%"}, {"measurement": "vomiting, patients", "setting": "[6]; 3/44 patients", "value": 6.8, "unit": "%"}, {"measurement": "dizziness, patients", "setting": "[6]; 8/44 patients", "value": 18, "unit": "%"}, {"measurement": "abdominal pain, patients", "setting": "[6]; 11/44 patients", "value": 32, "unit": "%"}, {"measurement": "outcome of all other AEs", "setting": "[6]; in vivo", "value": "resolved spontaneously without discontinuation"}]}
